The test system of assay [1] is Bax mediated cytochrome c release, Bcl-xL. The experiment in a line: Cytochrome c release from purified mitochondria by tBid and Bax in the presence of Bcl-xL. The note with it: mouse liver mitochondria; 5 nM tBid, 50 nM Bax, 300 nM Bcl-xL; 15 min, 30 °C; Western blot; pre-incubation pH 9, 30 °C. The format is biochemical. As to the method: (§1) (A–E) in vitro reconstitution assay on liposome permeabilization. […] The treated Bcl-xL was then added to reactions containing ANTS-DPX liposomes, 100 nM Bax and 20 nM of either cBid (A,B) or cBidmt1(C,D) at pH 7. Liposome permeabilization was quantified by fluorescence after 5h incubation at 37 °C where 100% release was defined as the fluorescence change due to lipid solubilization with 1% Triton X-100. […] Error bars, std. dev. n = 3. To compare between the TCTP treated groups and the Control group statistically, two-way ANOVA test was performed for (A–D) and one-way ANOVA test was performed for (E). […] Colored asterisks above each data point indicate the statistical significance (*p < 0.05; **p < 0.01, no asterisks if p ≥ 0.05). A complete statistical analysis is provided in Supplementary Table 2–4. […] Cyto c extra-mito: in the supernatant, analysed by Western blot. […]
to highlight the pre-incubation), pH 9, 30 C° before being added to the mitochondria at their final concentrations. […] Cytochrome c was detected in the mitochondrial fraction (Cyto c intra-mito) or in the supernatant (Cyto c extra-mito) by Western blot analysis. […]
Cytochrome c release assay. […] Mitochondrial pellets and the corresponding supernatant fractions were subjected to SDS-polyacrylamide gel electrophoresis and analyzed by Western blotting for cytochrome c.

The subject of the next assay is cBid+Bax. The experiment in a line: Control liposome permeabilization without Bcl-xL, cBid+Bax. The note with it: 320 nM pH9 treated TCTP, 100 nM Bax, 20 nM cBid. Type of assay: biochemical. As for the experimental part: as §1, with “2–4. (F) Permeabilization assays of mitochondrial membrane by tBid and Bax assessing cytochrome c release.” for “2–4.”
Figure 10 A,B) or cBid mt1 (Supplementary Figure 10 C,D) at pH 7 to quantify the activity of Bcl-xL inhibition of liposome permeablization. […]
the Control group (No TCTP) were analyzed through Dunnett's multiple comparisons test at each sample condition (Bcl-XL concentration) for statistical significance. […]
Statistical significance was analyzed through Dunnett's multiple comparisons test. […]

For “TCTP: Translationally Controlled Tumor Protein (TCTP/tpt1), recombinant full-length”, in assay [1], the “inhibition of cytochrome c release in the presence of Bcl-xL” value is given as “inhibit cytochrome c release in a concentration-dependent manner”. Moreover, the “effect on cBid-Bax induced permeabilization not containing Bcl-xL” value in the assay on cBid+Bax was “no effect”.
